Tests used:
[1] = target: Epidermal growth factor receptor (EGFR)(L858R)(T790M) (Homo sapiens, UniProt P00533, L858R/T790M); experiment: Inhibitory Activity for EGFR (L858R/T790M) Kinase
Procedure: (§1) A 50 ng/μL EGFR (L858R/T790M, Carna) stock solution was diluted with a kinase buffer (50 mM HEPES, 10 mM MgCl2, 2 mM DTT, 1 mM EGTA, 0.01% Tween 20), and 6 μL of 1.67× working solution at 0.004175 ng/μL (final concentration: 0.0025 ng/μL) was added to each well. Different compounds dissolved in DMSO were added to wells using a nanoliter pipettor, resulting in the final concentrations of the compounds of 10 nM to 0.0024 nM (4-fold gradient, 7 concentrations in total), and blank control wells (without enzyme) and negative control wells (with enzyme, plus vehicle DMSO) were set, 2 replicate wells for each concentration. After enzyme was reacted with the compound or vehicle for 30 min, 5×ATP at 25 μM (final concentration: 5 μM, Sigma) prepared with a kinase buffer was mixed with 5× substrate at 0.5 μM (final concentration: 0.1 μM, ULight-poly GT, PerkinElmer) at a ratio of 1:1 (v:v), and the mixture was added to each well at 4 μL/well. After being sealed with a film, the plate was incubated at room temperature for 2 h, and then 5 μL of 4×EDTA at 40 mM (final concentration: 10 mM) was added to each well. After the plate was incubated for 5 min at room temperature, 5 μL of 4× detection reagent at 8 nM (final concentration: 2 nM, Eu-anti-phospho-tyrosine antibody, PerkinElmer) was added to each well. After being incubated at room temperature for 1 h, the plate was read using a PerkinElmer Envision multi-mode microplate reader (excitation: 320 nm, emission: 665 nm), and IC50 was calculated by four-parameter fitting.

[2] = target: Epidermal growth factor receptor [T790M,C797S,L858R] (UniProt P00533, C797S/L858R/T790M); experiment: Inhibitory Activity for EGFR (L858R/T790M/C797S) Kinase
Epidermal growth factor receptor [T790M,C797S,L858R], sequence (P00533 25-1210 T790M/C797S/L858R limits assumed): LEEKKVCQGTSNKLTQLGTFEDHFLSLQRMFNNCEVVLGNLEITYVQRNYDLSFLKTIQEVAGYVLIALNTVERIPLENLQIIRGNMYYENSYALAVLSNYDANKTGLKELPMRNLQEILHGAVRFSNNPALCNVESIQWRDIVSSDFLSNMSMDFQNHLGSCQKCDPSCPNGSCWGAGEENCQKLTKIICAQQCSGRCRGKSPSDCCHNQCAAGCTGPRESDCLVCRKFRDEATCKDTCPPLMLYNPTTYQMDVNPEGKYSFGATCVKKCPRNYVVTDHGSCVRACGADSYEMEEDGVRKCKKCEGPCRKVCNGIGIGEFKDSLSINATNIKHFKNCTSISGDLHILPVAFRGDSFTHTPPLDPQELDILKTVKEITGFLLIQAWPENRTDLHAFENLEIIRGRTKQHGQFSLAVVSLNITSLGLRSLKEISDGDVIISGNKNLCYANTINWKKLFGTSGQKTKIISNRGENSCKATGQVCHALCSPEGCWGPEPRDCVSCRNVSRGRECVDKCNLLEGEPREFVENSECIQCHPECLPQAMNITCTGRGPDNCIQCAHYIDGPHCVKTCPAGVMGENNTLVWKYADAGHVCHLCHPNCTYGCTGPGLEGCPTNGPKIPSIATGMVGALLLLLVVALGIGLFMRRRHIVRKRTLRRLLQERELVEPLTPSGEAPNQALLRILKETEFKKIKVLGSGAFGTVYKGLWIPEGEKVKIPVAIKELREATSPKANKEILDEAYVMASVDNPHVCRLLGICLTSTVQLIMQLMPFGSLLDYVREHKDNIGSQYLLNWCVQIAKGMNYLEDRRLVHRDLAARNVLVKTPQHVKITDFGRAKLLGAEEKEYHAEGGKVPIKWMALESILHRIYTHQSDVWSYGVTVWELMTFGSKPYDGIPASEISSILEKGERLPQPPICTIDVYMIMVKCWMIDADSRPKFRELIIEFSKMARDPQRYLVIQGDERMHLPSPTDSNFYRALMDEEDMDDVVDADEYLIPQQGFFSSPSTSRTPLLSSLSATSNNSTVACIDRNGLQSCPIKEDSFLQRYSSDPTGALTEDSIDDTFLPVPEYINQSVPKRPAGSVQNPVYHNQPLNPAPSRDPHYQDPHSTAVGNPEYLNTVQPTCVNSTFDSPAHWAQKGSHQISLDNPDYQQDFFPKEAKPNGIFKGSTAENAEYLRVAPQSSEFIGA
Procedure: as §1, with “(L858R/T790M/C797S, BPS)” for “(L858R/T790M, Carna)”, “0.00167” for “0.004175”, “0.001” for “0.0025”

Epidermal growth factor receptor (EGFR)(L858R)(T790M), sequence (P00533 25-1210 T790M/L858R limits assumed): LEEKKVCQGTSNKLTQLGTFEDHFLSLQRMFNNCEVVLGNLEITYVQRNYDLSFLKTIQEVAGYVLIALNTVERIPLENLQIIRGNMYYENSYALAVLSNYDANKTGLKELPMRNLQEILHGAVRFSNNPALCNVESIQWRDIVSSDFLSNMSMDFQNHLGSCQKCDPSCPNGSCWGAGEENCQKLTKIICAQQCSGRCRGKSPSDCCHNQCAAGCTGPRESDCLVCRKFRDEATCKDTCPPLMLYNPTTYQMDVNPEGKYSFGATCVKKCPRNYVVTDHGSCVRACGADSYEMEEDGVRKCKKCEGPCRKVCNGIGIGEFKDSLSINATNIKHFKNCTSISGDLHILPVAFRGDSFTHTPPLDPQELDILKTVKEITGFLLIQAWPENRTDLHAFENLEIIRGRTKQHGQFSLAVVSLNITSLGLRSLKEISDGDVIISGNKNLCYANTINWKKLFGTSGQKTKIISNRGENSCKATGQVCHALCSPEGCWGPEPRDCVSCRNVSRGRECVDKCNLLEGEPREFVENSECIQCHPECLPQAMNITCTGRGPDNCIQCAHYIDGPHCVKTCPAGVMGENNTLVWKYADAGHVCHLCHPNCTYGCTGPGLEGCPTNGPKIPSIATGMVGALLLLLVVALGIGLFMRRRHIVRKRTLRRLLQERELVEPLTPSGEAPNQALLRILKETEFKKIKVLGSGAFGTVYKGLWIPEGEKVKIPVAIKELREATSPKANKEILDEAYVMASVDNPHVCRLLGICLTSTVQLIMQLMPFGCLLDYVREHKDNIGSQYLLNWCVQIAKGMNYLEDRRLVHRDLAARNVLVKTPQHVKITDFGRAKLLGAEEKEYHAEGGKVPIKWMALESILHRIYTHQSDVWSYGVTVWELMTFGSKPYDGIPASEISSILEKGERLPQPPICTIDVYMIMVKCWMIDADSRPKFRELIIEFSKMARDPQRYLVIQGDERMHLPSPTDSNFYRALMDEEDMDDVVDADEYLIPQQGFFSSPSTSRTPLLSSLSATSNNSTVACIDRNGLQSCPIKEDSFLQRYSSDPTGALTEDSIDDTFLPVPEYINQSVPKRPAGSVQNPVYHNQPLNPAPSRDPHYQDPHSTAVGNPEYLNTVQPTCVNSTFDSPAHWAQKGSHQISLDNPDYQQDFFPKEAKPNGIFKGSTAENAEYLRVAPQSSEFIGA

IC50 [1]	IC50 [2]	SMILES
0.77 nM	0.45 nM	Cc1cc2cc(n1)-c1cnn(C)c1OCCC[C@@H](C1CC1)CN1/C(=N/C2=O)Nc2ccc(N(C)C3CCN(C)CC3)cc21 [US20250034165, Example 117]
0.49 nM	0.66 nM	Cc1cc2cc(n1)-c1cnn(C)c1OCCC[C@@H](C1CC1)CN1/C(=N/C2=O)Nc2cc(N[C@@H]3CC[C@H](N(C)C)C3)ccc21 [US20250034165, Example 133]
0.084 nM	0.24 nM	Cc1cc2cc(n1)-c1cnn(C)c1OCCC[C@@H](C1CC1)CN1/C(=N/C2=O)Nc2ccc(N[C@H](C)CN3CCCCC3)cc21 [US20250034165, Example 141]
0.087 nM	0.21 nM	Cc1cc2cc(n1)-c1cnn(C)c1OCCC[C@@H](C1CC1)CN1/C(=N/C2=O)Nc2cc(N[C@H](C)CCN3CCCCC3)ccc21 [US20250034165, Example 139]
0.23 nM	0.25 nM	Cc1cc2cc(n1)-c1cnn(C)c1OCCC[C@@H](C1CC1)CN1/C(=N/C2=O)Nc2cc(N[C@H]3CC[C@H](O)CC3)ccc21 [US20250034165, Example 151]
0.61 nM	0.5 nM	Cc1cc2cc(n1)-c1cnn(C)c1OCCC[C@@H](C1CC1)CN1/C(=N/C2=O)Nc2cc(NC3CC(N(C)C)C3)ccc21 (some centres not stated) [US20250034165, Example 93]
0.41 nM	0.35 nM	Cc1cc2cc(n1)-c1cnn(C)c1OCCC[C@@H](C1CC1)CN1/C(=N/C2=O)Nc2ccc(N[C@H]3C[C@@H](N(C)C)C3)cc21 [US20250034165, Example 127]
0.082 nM	–	Cc1cc2cc(n1)-c1cnn(C)c1OCCC[C@@H](C1CC1)CN1/C(=N/C2=O)Nc2ccc(N[C@H]3CC[C@@H](N(C)C)C3)cc21 [US20250034165, Example 132]
0.26 nM	–	Cc1cc2cc(n1)-c1cnn(C)c1OCCC[C@@H](C1CC1)CN1/C(=N/C2=O)Nc2ccc(NC(=O)CN(C)C)cc21 [US20250034165, Example 111]
0.71 nM	0.34 nM	Cc1cc2cc(n1)-c1cnn(C)c1OCCC[C@@H](C1CC1)CN1/C(=N/C2=O)Nc2ccc(N[C@H]3CC[C@H](N(C)C)C3)cc21 [US20250034165, Example 136]
0.26 nM	0.28 nM	Cc1cc2cc(n1)-c1cnn(C)c1OCCC[C@@H](C1CC1)CN1/C(=N/C2=O)Nc2ccc(NC3CC(N(C)C)C3)cc21 (some centres not stated) [US20250034165, Example 98]
0.17 nM	0.094 nM	Cc1cc2cc(n1)-c1cnn(C)c1OCCC[C@@H](C1CC1)CN1/C(=N/C2=O)Nc2cc(N[C@H]3C[C@@H](N(C)C)C3)ccc21 [US20250034165, Example 125]
0.23 nM	–	Cc1cc2cc(n1)-c1cnn(C)c1OCCC[C@@H](C1CC1)CN1/C(=N/C2=O)Nc2ccc(N[C@H]3CC[C@H](N(C)C)CC3)cc21 [US20250034165, Example 100]
0.15 nM	0.12 nM	Cc1cc2cc(n1)-c1cnn(C)c1OCCC[C@@H](C1CC1)CN1/C(=N/C2=O)Nc2ccc(NC(=O)CCCN(C)C)cc21 [US20250034165, Example 113]
0.14 nM	0.35 nM	Cc1cc2cc(n1)-c1cnn(C)c1OCCC[C@@H](C1CC1)CN1/C(=N/C2=O)Nc2ccc(N[C@@H](C)CN3CCCCC3)cc21 [US20250034165, Example 142]
0.14 nM	0.12 nM	Cc1cc2cc(n1)-c1cnn(C)c1OCCC[C@@H](C1CC1)CN1/C(=N/C2=O)Nc2ccc(NC(=O)CCN(C)C)cc21 [US20250034165, Example 112]
–	0.21 nM	Cc1cc2cc(n1)-c1cnn(C)c1OCCC[C@@H](C1CC1)CN1/C(=N/C2=O)Nc2ccc(N[C@H]3CC[C@@H](N(C)C)CC3)cc21 [US20250034165, Example 99]
0.094 nM	–	Cc1cc2cc(n1)-c1cnn(C)c1OCCC[C@@H](C1CC1)CN1/C(=N/C2=O)Nc2cc(N[C@H]3CC[C@@H](N(C)C)C3)ccc21 [US20250034165, Example 131]
0.12 nM	–	Cc1cc2cc(n1)-c1cnn(C)c1OCCC[C@@H](C1CC1)CN1/C(=N/C2=O)Nc2cc(N[C@H]3C[C@H](N(C)C)C3)ccc21 [US20250034165, Example 126]
